According to patent US20260347403A1, “FUNGICIDAL COMPOUND” (priority 2022, published 2026):

Test system: Puccinia recondita
Assay: Leaf disc mixture assay with malonomicin, Puccinia recondita, preventive spray timing, 8 dpi
Format: in vivo, Puccinia recondita on wheat (cultivar Kanzler)
Details: compound of Formula I(a) lines 1-A to 2-D = 200, 100, 50, 25, 12.5, 6.25, 3.13, 0 ppm
Description: A stock solution for the lipopeptide compound of Formula I(a) was produced in DMSO (max. 10 mg/ml). Malonomicin was produced according to Law et al, 2018 (Nature Catalys is |VOL 1|DECEMBER 2018|977-984). A stock solution of malonomicin was produced in water plus 0.025% Tween®20.
Assays to test efficacy of mixtures of compound of Formula I(a) in combination with malonomicin on the control of fungal pathogens in a leaf disc assay were designed for two 24well plates.
Table 22 and Table 23. Outline of 24well testplate (1) and testplate (2) including concentration of compounds sprayed per well. The upper number in the cell indicates compound of Formula I(a) concentration (ppm), the lower number malonomicin concentration (ppm). Column (1) holds a dilution series of compound of Formula I(a), row (2-D) hold a dilution series of malonomicin. Well 2-D-(1) represents an untreated check. This design was applied for tests including Puccinia recondita (EPPO code: PUCCRE) with preventive and curative spray timing.
A first set of master plates with 1× concentrated spray solution of the lipopeptide compound of Formula I(a) stock diluted in water with concentrations according to table 22, table 23, table 25 or table 26, respectively, was prepared. Each well contained 2% DMSO and 0.025% Tween20. Accordingly, a second set of master plates with 1× concentrated malonomicin stock diluted in water was prepared. Each well of the second set contained 0.025% Tween20. Leaf segments placed on agar in 24well plates were sprayed with 8 μl of solution from the master plate containing the lipopeptide compound of Formula I(a) and the leaf segments were let to dry, followed 2 hours later by 8 μl of solution from the master plate containing malonomicin. After second sprays had dried, leaf segments were infected with fungal spores to obtain a preventive application timing. Alternatively, leaf segments infected one day before spray of the compounds were used, resulting in a curative spray timing. In addition, several plates were produced where leaf segments were sprayed 2× in absence of test compound (with only DMSO and Tween20), representing the untreated check samples. For each leaf segment percent leaf coverage of disease symptoms was assessed. Percent leaf coverage reduction relative to the untreated check was calculated. Efficacy of the mixtures was tested in duplicate and on different fungal species. Reported efficacy values are the average of two replicate results.
Puccinia recondita (EPPO Code: PUCCRE) with Preventive Spray Timing.
Wheat (cultivar Kanzler) leaf segments are placed on agar in multiwell plates (24-well format) and sprayed with test solutions (8 ul per well). After drying, the leaf disks are inoculated with a spore suspension of the fungus. After appropriate incubation the activity of a compound is assessed 8 dpi (days after inoculation) as preventive fungicidal activity.

In the case of `NC[C@@H]1NC(=O)C(C(=O)CC(NC(=O)[C@@H](N)CO)(C(=O)O)C(=O)O)=C1O` [malonomicin, {[(2S)-2-amino-3-hydroxypropanoyl]amino}{2-[(5S)-5-(aminomethyl)-4-hydroxy-2-oxo-2,5-dihydro-1H-pyrrol-3-yl]-2-oxoethyl}malonic acid], the “control of fungal growth (% reduction of symtoms on the leaf segment as compared to untreated check)” value (column (2): malonomicin 200 ppm) is reported as 100%, the “control of fungal growth (% reduction of symtoms on the leaf segment as compared to untreated check)” value (column (3): malonomicin 20 ppm) is reported as 100% and the “control of fungal growth (% reduction of symtoms on the leaf segment as compared to untreated check)” value (column (4): malonomicin 6.67 ppm) is reported as 80%. The “control of fungal growth (% reduction of symtoms on the leaf segment as compared to untreated check)” value (column (5): malonomicin 2.22 ppm) was 10% and the “control of fungal growth (% reduction of symtoms on the leaf segment as compared to untreated check)” value (column (6): malonomicin 0.74 ppm) was 0%.
